Assay results reported in patent US12448388B2, “PRMT5 inhibitors and uses thereof” (Gilead Sciences, Inc., priority 2023, dated 2025).

What follows are compounds tested on HCT116 MTAP-deleted cell lines (assay: Cell viability assay (CellTiter-Glo, 7 days), HCT116 MTAP-deleted). Settings: Homo sapiens, HCT-116; cell viability assay, HCT116 MTAP-deleted; class symbols; read-out: CC50.
Assay type: cell-based
Method: Control compounds were analyzed in parallel each time for quality control. In Brief, on Day -1, a serial dilution of stock compounds in DMSO was performed using BioMek liquid handlers and dispensed using Echo acoustic dispenser into 384 well plates. Both tool compounds and sample compounds were spotted in the same plate for a dose response of PRMT5 inhibitors. Compound plates were stored as frozen until the cells were ready for seeding. […] After equilibrating the plate in room temperature, the cells were incubated for 7 days inside the sealed incubator set at 37° C. with 90% humidity and 5% CO2. On Day 7, the viability of cells was measured using a CTG assay kit (CellTitre-Glo;Promega cat no. G7573). Shortly, 40 μl per well of luminescent cell viability assay reagent were dispensed using EL460 liquid dispenser 5 μl cassette. CTG luminescence signal was measured using an EnVision plate reader (PerkinElmer) in accordance with manufacturer's instruction. […] Selectivity with * is artificially high due to limited solubility of the compound hampering accurate measurement of WT CC50.

SMILES | CC50 [nM]
CN(C(=O)c1cc2c(cc1F)nc(N)c1cncn12)[C@@H]1COc2cc([C@H]3C[C@@H]3C(F)F)ccc21 (single isomer, unassigned) [Ff-505] | < 100
CN(C(=O)c1cc2c(cc1C#N)nc(N)c1cncn12)[C@@H]1COc2cc(C(F)(F)F)ccc21 [Ff-490, (S)-4-amino-7-cyano-N-methyl-N-(6-(trifluoromethyl)-2,3-dihydrobenzofuran-3-yl)imidazo[1,5-a]quinoxaline-8-carboxamide] | < 100
Cc1ncn2c1c(N)nc1cnc(C(=O)N3C[C@H](F)CC4Oc5cc(C(F)(F)F)ccc5C43)cc12 (mixture of isomers) [Ff-650, Rac-(4-amino-3-methylimidazo[1,5-a]pyrido[3,4-e]pyrazin-8-yl)((3R,4aS,9bS)-3-fluoro-7-(trifluoromethyl)-3,4,4a,9b-tetrahydrobenzofuro[3,2-b]pyridin-1(2H)-yl)methanone] | < 100
CN(C(=O)c1cc2c(cc1F)nc(N)c1cncn12)[C@@H]1COc2cc(C3CC3(F)F)ccc21 (stereo partly drawn) [Ff-574, 4-amino-N-((3S)-6-(2,2-difluorocyclopropyl)-2,3-dihydrobenzofuran-3-yl)-7-fluoro-N-methylimidazo[1,5-a]quinoxaline-8-carboxamide] | < 100
Cc1ncn2c1c(N)nc1cnc(C(=O)N3CCC[C@@H]4Oc5cc(OC(F)(F)F)c(F)cc5[C@@H]43)cc12 [Fg-32, (4-amino-3-methylimidazo[1,5-a]pyrido[3,4-e]pyrazin-8-yl)((4aS,9bS)-8-fluoro-7-(trifluoromethoxy)-3,4,4a,9b-tetrahydrobenzofuro[3,2-b]pyridin-1(2H)-yl)methanone] | < 100
C[C@@H]1C[C@@H]2Cc3nc(C(F)(F)F)ccc3[C@@H]2N(C(=O)c2cc3c(cc2F)nc(N)c2cncn23)C1 (single isomer, unassigned) [Ff-393] | < 100
C[C@@H]1C[C@@H]2Oc3cc(OC(F)(F)F)ccc3[C@@H]2N(C(=O)c2cc3c(cn2)nc(N)c2cncn23)C1 [Ff-507, (4-aminoimidazo[1,5-a]pyrido[3,4-e]pyrazin-8-yl)((3R,4aS,9bS)-3-methyl-7-(trifluoromethoxy)-3,4,4a,9b-tetrahydrobenzofuro[3,2-b]pyridin-1(2H)-yl)methanone] | < 100
Nc1nc2cnc(C(=O)N3CCC4(CC4)[C@@H]4Oc5cc(C(F)(F)F)ccc5[C@@H]43)cc2n2cncc12 [Ff-677, (4-aminoimidazo[1,5-a]pyrido[3,4-e]pyrazin-8-yl)((4aS,9bS)-7-(trifluoromethyl)-2,3,4a,9b-tetrahydro-1H-spiro[benzofuro[3,2-b]pyridine-4,1′-cyclopropan]-1-yl)methanone] | < 100
Cc1ncc2c3cc(C(=O)N(Cc4ccc(C(F)(F)F)cn4)[C@H](C)c4ncccn4)c(F)cc3nc(N)n12 [Fg-17, (R)-5-amino-8-fluoro-3-methyl-N-(1-(pyrimidin-2-yl)ethyl)-N-((5-(trifluoromethyl)pyridin-2-yl)methyl)imidazo[1,5-c]quinazoline-9-carboxamide] | < 100
COC[C@@H](C)N(Cc1ccc(C(F)(F)F)cc1F)C(=O)c1cc2c(cc1F)nc(N)c1cncn12 [Ff-419, 4-amino-7-fluoro-N-[[2-fluoro-4-(trifluoromethyl)phenyl]methyl]-N-[(1R)-2-methoxy-1-methyl-ethyl]imidazo[1,5-a]quinoxaline-8-carboxamide] | < 100
C[C@H]1CN(C(=O)c2cc3c(cc2F)nc(N)c2cncn23)[C@H]2c3ccc(C(F)(F)F)c(F)c3C[C@H]2O1 [Ff-690, (4-amino-7-fluoroimidazo[1,5-a]quinoxalin-8-yl)((2S,4aS,9aR)-8-fluoro-2-methyl-7-(trifluoromethyl)-2,3,9,9a-tetrahydroindeno[2,1-b][1,4]oxazin-4(4aH)-yl)methanone] | < 100

Same assay, conditions: Homo sapiens, HCT-116; cell viability, HCT116 MTAP-deleted; class symbols; read-out: CC50

SMILES | CC50 [nM]
CN(C(=O)c1cc2c(cn1)nc(N)c1cncn12)[C@H]1c2ccc(C(F)(F)F)cc2[C@H]2C[C@H]21 [Ff-256, 4-amino-N-methyl-N-((1aS,6R,6aR)-3-(trifluoromethyl)-1,1a,6,6a-tetrahydrocyclopropa[a]inden-6-yl)imidazo[1,5-a]pyrido[3,4-e]pyrazine-8-carboxamide] | 100 to 1000
Cc1ncc2c(N)nc3ccc(C(=O)N4CCC[C@@H]5Oc6c(ccc(C(F)(F)F)c6F)[C@@H]54)cc3n12 [Ff-122, (4-amino-1-methylimidazo[1,5-a]quinoxalin-8-yl)((4aS,9bS)-6-fluoro-7-(trifluoromethyl)-3,4,4a,9b-tetrahydrobenzofuro[3,2-b]pyridin-1(2H)-yl)methanone] | < 100
C[C@H]1CN(C(=O)c2ccc3nc(N)c4cncn4c3c2)[C@H]2c3ccc(OC(F)(F)F)cc3C[C@H]2O1 (single isomer, unassigned) [Ff-188] | < 100
CN(C(=O)c1cc2c(cc1F)nc(N)c1cncn12)[C@@H]1CCc2cc(C(F)F)ccc21 [Ff-166, (R)-4-amino-N-(5-(difluoromethyl)-2,3-dihydro-1H-inden-1-yl)-7-fluoro-N-methylimidazo[1,5-a]quinoxaline-8-carboxamide] | < 100
Nc1nc2ccc(C(=O)N(Cc3ccc(C(F)(F)F)cc3F)C34CC(C3)C4)cc2n2cncc12 [Ff-202, 4-amino-N-(bicyclo[1.1.1]pentan-1-yl)-N-(2-fluoro-4-(trifluoromethyl)benzyl)imidazo[1,5-a]quinoxaline-8-carboxamide] | 100 to 1000
Cc1ncn2c1c(N)nc1cc(Cl)c(C(=O)N3CCC[C@@H]4OCc5nc(C(F)(F)F)ccc5[C@@H]43)cc12 [Ff-360, (4-amino-7-chloro-3-methylimidazo[1,5-a]quinoxalin-8-yl)((4aS,10bS)-8-(trifluoromethyl)-2,3,4,4a,6,10b-hexahydro-1H-pyrano[3,2-b:5,4-b′]dipyridin-1-yl)methanone] | < 100
Nc1nc2cc(F)c(C(=O)N3CCO[C@@H]4Cc5cc(OC(F)(F)F)c(F)cc5[C@@H]43)cc2n2cncc12 [Ff-176, (4-amino-7-fluoroimidazo[1,5-a]quinoxalin-8-yl)((4aS,9aR)-6-fluoro-7-(trifluoromethoxy)-2,3,9,9a-tetrahydroindeno[2,1-b][1,4]oxazin-4(4aH)-yl)methanone] | < 100
Nc1nc2cc(F)c(C(=O)N3CCO[C@@H]4Cc5c(ccc(Br)c5F)[C@@H]43)cc2n2cncc12 [Ff-159, (4-amino-7-fluoroimidazo[1,5-a]quinoxalin-8-yl)((4aS,9aR)-7-bromo-8-fluoro-2,3,9,9a-tetrahydroindeno[2,1-b][1,4]oxazin-4(4aH)-yl)methanone] | < 100
Nc1nc2cc(F)c(C(=O)N3CCC[C@@H]4Oc5c(ccc(Cl)c5F)[C@@H]43)cc2n2cncc12 (racemic) [Ff-335, Rac-((4-amino-7-fluoroimidazo[1,5-a]quinoxalin-8-yl)((4aS,9bS)-7-chloro-6-fluoro-3,4,4a,9b-tetrahydrobenzofuro[3,2-b]pyridin-1(2H)-yl)methanone] | < 100
CC(C)N(Cc1ccc(-c2ccnn2C(F)(F)F)cc1F)C(=O)c1cc2c(cc1F)nc(N)c1cncn12 [Ff-216] | < 100
Cc1ncc2c(N)nc3cc(Cl)c(C(=O)N4CCC[C@@H]5Oc6nc(C(F)(F)F)ccc6[C@@H]54)cc3n12 (racemic) [Ff-334, Rac-4-amino-7-chloro-1-methylimidazo[1,5-a]quinoxalin-8-yl)((4aS,9bS)-7-(trifluoromethyl)-3,4,4a,9b-tetrahydrofuro[2,3-b:4,5-b′]dipyridin-1(2H)-yl)methanone] | < 100
